Consider `Cc1ccc(S(=O)(=O)Cc2nc(-c3ccc(C(=O)Nc4cccnc4)cc3)oc2C)cc1` [Example 1, 4-(5-Methyl-4-{[(4-methylphenyl)sulfonyl]methyl}-1,3-oxazol-2-yl)-N-(3-pyridinyl)benzamide], for which the melting point is 248 to 250 °C.

On to `Cc1ccc(S(=O)(=O)Cc2nc(-c3ccc(C(=O)Nc4ccncc4)cc3)oc2C)cc1` [Example 2, 4-(5-Methyl-4-{[(4-methylphenyl)sulfonyl]methyl}-1,3-oxazol-2-yl)-N-(4-pyridinyl)benzamide], for which the melting point is 229 to 231 °C.

Turning to `Cc1ccc(S(=O)(=O)Cc2nc(-c3ccc(C(=O)N(C)c4cccnc4)cc3)oc2C)cc1` [Example 3, N-Methyl-4-(5-methyl-4-{[(4-methylphenyl)sulfonyl]methyl}-1,3-oxazol-2-yl)-N-(3-pyridinyl)benzamide], the melting point lay within 195 to 197 °C.

The compound `Cc1ccc(S(=O)(=O)Cc2nc(-c3ccc(C(=O)NCc4ccccn4)cc3)oc2C)cc1` [Example 4, 4-(5-Methyl-4-{[(4-methylphenyl)sulfonyl]methyl}-1,3-oxazol-2-yl)-N-(2-pyridinylmethyl)benzamide] showed a melting point of 154 to 155 °C.

`Cc1ccc(S(=O)(=O)Cc2nc(-c3ccc(C(=O)NCc4ccncc4)cc3)oc2C)cc1` [Example 6, 4-(5-Methyl-4-{[(4-methylphenyl)sulfonyl]methyl}-1,3-oxazol-2-yl)-N-(4-pyridinylmethyl)benzamide] returned a melting point of 169 to 172 °C.

Take `Cc1ccc(S(=O)(=O)Cc2nc(-c3ccc(C(=O)N(C)Cc4cccnc4)cc3)oc2C)cc1` [Example 7, N-Methyl-4-(5-methyl-4-{[(4-methylphenyl)sulfonyl]methyl}-1,3-oxazol-2-yl)-N-(3-pyridinylmethyl)benzamide]: the melting point is 77 to 80 °C.

The compound `Cc1ccc(S(=O)(=O)Cc2nc(-c3ccc(C(=O)NCCc4cccnc4)cc3)oc2C)cc1` [Example 8, 4-(5-Methyl-4-{[(4-methylphenyl)sulfonyl]methyl}-1,3-oxazol-2-yl)-N-[2-(3-pyridinyl)ethyl]benzamide] yielded a melting point of 207 to 208 °C.

As for `Cc1ccc(S(=O)(=O)Cc2nc(-c3ccc(C(=O)NCc4cnccn4)cc3)oc2C)cc1` [Example 9, 4-(5-Methyl-4-{[(4-methylphenyl)sulfonyl]methyl}-1,3-oxazol-2-yl)-N-(2-pyrazinylmethyl)benzamide], the melting point was 204 to 206 °C.

Compound `Cc1ccc(S(=O)(=O)Cc2nc(-c3ccc(C(=O)NCc4nccn4C)cc3)oc2C)cc1` [Example 10, N-[(1-Methyl-1H-imidazol-2-yl)methyl]-4-(5-methyl-4-{[(4-methylphenyl)sulfonyl]methyl}-1,3-oxazol-2-yl)benzamide] came in with a melting point of 190 to 192 °C.

`Cc1ccc(S(=O)(=O)Cc2nc(-c3ccc(C(=O)NCc4cncn4C)cc3)oc2C)cc1` [Example 11, N-[(1-Methyl-1H-imidazol-5-yl)methyl]-4-(5-methyl-4-{[(4-methylphenyl)sulfonyl]methyl}-1,3-oxazol-2-yl)benzamide] came in with a melting point of 240 to 242 °C.

For `Cc1oc(-c2ccc(C(=O)NCc3cccnc3)cc2)nc1CS(=O)(=O)c1ccccc1` [Example 12, 4-{5-Methyl-4-[(phenylsulfonyl)methyl]-1,3-oxazol-2-yl}-N-(3-pyridinylmethyl)benzamide], the melting point lay within 196 to 198 °C.

As for `Cc1oc(-c2ccc(C(=O)NCc3cccnc3)cc2)nc1CS(=O)(=O)c1ccc(Cl)cc1` [Example 13, 4-(4-{[(4-Chlorophenyl)sulfonyl]methyl}-5-methyl-1,3-oxazol-2-yl)-N-(3-pyridinylmethyl)benzamide], the melting point lay within 220 to 222 °C.

`Cc1oc(-c2ccc(C(=O)NCc3cccnc3)cc2)nc1CS(=O)(=O)c1ccc(C(C)(C)C)cc1` [Example 14, 4-(4-{[(4-tert-Butylphenyl)sulfonyl]methyl}-5-methyl-1,3-oxazol-2-yl)-N-(3-pyridinylmethyl)benzamide] returned a melting point of 177 to 180 °C.

In turn, `Cc1cc(C)cc(S(=O)(=O)Cc2nc(-c3ccc(C(=O)NCc4cccnc4)cc3)oc2C)c1` [Example 15, 4-(4-{[(3,5-Dimethylphenyl)sulfonyl]methyl}-5-methyl-1,3-oxazol-2-yl)-N-(3-pyridinylmethyl)benzamide] gave a melting point of 188 to 190 °C.

Take `Cc1oc(-c2ccc(C(=O)NCc3cccnc3)cc2)nc1CS(=O)(=O)c1ccc(Br)cc1` [Example 16, 4-(4-{[(4-Bromophenyl)sulfonyl]methyl}-5-methyl-1,3-oxazol-2-yl)-N-(3-pyridinylmethyl)benzamide]: the melting point was 224 to 227 °C.

Turning to `Cc1cccc(S(=O)(=O)Cc2nc(-c3ccc(C(=O)NCc4cccnc4)cc3)oc2C)c1` [Example 17, 4-(5-Methyl-4-{[(3-methylphenyl)sulfonyl]methyl}-1,3-oxazol-2-yl)-N-(3-pyridinylmethyl)benzamide], the melting point lay in the range of 179 to 181 °C.

As for `COc1ccc(S(=O)(=O)Cc2nc(-c3ccc(C(=O)NCc4cccnc4)cc3)oc2C)cc1` [Example 18, 4-(4-{[(4-Methoxyphenyl)sulfonyl]methyl}-5-methyl-1,3-oxazol-2-yl)-N-(3-pyridinylmethyl)benzamide], the melting point was 189 to 191 °C.

`COc1cccc(S(=O)(=O)Cc2nc(-c3ccc(C(=O)NCc4cccnc4)cc3)oc2C)c1` [Example 19, 4-(5-Methyl-4-{[(3-methoxyphenyl)sulfonyl]methyl}-1,3-oxazol-2-yl)-N-(3-pyridinylmethyl)benzamide] gave a melting point of 143 to 145 °C.

In the case of `COc1ccc(S(=O)(=O)Cc2nc(-c3ccc(C(=O)NCc4cccnc4)cc3)oc2C)cc1OC` [Example 20, 4-(4-{[(3,4-Dimethoxyphenyl)sulfonyl]methyl}-5-methyl-1,3-oxazol-2-yl)-N-(3-pyridinylmethyl)benzamide], the melting point was 104 to 108 °C.

`Cc1oc(-c2ccc(C(=O)NCc3cccnc3)cc2)nc1CS(=O)(=O)c1ccc(F)cc1` [Example 22, 4-(4-{[(4-Fluorophenyl)sulfonyl]methyl}-5-methyl-1,3-oxazol-2-yl)-N-(3-pyridinylmethyl)benzamide] showed a melting point of 218 to 220 °C.

For the compound `Cc1oc(-c2ccc(C(=O)NCc3cccnc3)cc2)nc1CS(=O)(=O)c1ccc(N2CCN(C)CC2)cc1` [Example 23, 4-[5-Methyl-4-({[4-(4-methyl-1-piperazinyl)phenyl]sulfonyl}methyl)-1,3-oxazol-2-yl]-N-(3-pyridinylmethyl)benzamide], the melting point was in the range of 210 to 215 °C.

`Cc1oc(-c2ccc(C(=O)NCc3cccnc3)cc2)nc1CS(=O)(=O)c1ccc(N2CCOCC2)cc1` [Example 24, 4-[5-Methyl-4-({[4-(4-morpholinyl)phenyl]sulfonyl}methyl)-1,3-oxazol-2-yl]-N-(3-pyridinylmethyl)benzamide] yielded a melting point of 208 to 210 °C.

Compound `Cc1ccc(S(=O)(=O)Cc2csc(-c3ccc(C(=O)NCc4cccnc4)cc3)n2)cc1` [Example 25, 4-(4-{[(4-Methylphenyl)sulfonyl]methyl}-1,3-thiazol-2-yl)-N-(3-pyridinylmethyl)benzamide] yielded a melting point of 178 to 181 °C.

Compound `Cc1oc(-c2ccc(C(=O)NCc3ccccc3)cc2)nc1CS(=O)(=O)c1ccc(Br)cc1` [Example 27, N-Benzyl-4-(4-{[(4-bromophenyl)sulfonyl]methyl}-5-methyl-1,3-oxazol-2-yl)benzamide] showed a melting point of 234 to 237 °C.

For the origin of these results see US9085570B2, “Substituted benzamides and their uses” (The Board of Trustees of the Leland Stanford Junior …, priority 2010, dated 2015).
